According to US8338339B2, “Process for inhibition of proteolytic activity during the ensiling of forages” (The United States of America as represented by the …, priority 2003, dated 2012):

What was measured:
Format in all cases: biochemical
[1] = test system: proteolysis in leaf extracts of transgenic alfalfa expressing the red clover PPO1 gene; assay: Proteolysis (amino acid release) in PPO-alfalfa leaf extracts / alfalfa extracts with PPO activity; details: for inhibition of proteolysis: 3 mM caffeic acid
Description: (§1) Clarified extracts of red clover leaves were made in 50 mM MES, pH 6.5 (crude extract in Table 1). Where indicated, extracts were desalted using a Sephadex G-25 spin column equilibrated with 50 mM MES, pH 6.5, to remove low molecular weight molecules (i.e. o-diphenols). Extract protein concentrations were adjusted to 2 mg/ml with buffer. Where indicated, the o-diphenol in the form of caffeic acid (CA) was added to a final concentration of 3 mM. Extracts were incubated at 37° C. At the indicated times, samples were removed, trichloroacetic acid (TCA) added to 5%, and release of free amino acids (a measure of proteolytic activity) into the TCA-soluble supernatant was determined by ninhydrin assay. Data are the average of three experiments using independent tissue samples ±standard error.
(§2) Proteolysis was measured in leaf extracts essentially as described in Experiment 1 above. The o-diphenol in the form of caffeic acid was added to 3 mM caffeic acid. Data are the average of three experiments using independent tissue samples ±standard error.
(§3) Proteolysis after a four hour incubation at 37° C. was measured essentially as described for Experiment 1 above in leaf extracts of either transgenic alfalfa expressing the red clover PPO1 gene (PPO-alfalfa) or control-alfalfa not expressing an exogenous PPO gene (control-alfalfa) using the o-diphenol in the form of caffeic acid at various concentrations up to 10 mM. Data are the average of three experiments using independent tissue samples ±standard error.
(§4) Proteolysis in the reaction mixtures following a four hour incubation at 37° C. was measured essentially as described above for reaction mixture with and without caffeic acid added to 3 mM (+CA and −CA, respectively). Data are the average of three experiments using independent tissue samples ±standard error.
(§5) Proteolysis after a four hour incubation at 37° C. was measured (as described in Example 1 above) of alfalfa for reaction mixtures containing either 250 mU/ml PPO activity (protein adjusted to 2 mg/ml with control alfalfa extract) or a control alfalfa extract (2 mg/ml protein). Various o-diphenols were present in the reaction mixtures at 3 mM, including caffeic acid (CA) hydrocaffeic acid (HCA), chlorogenic acid (CGA), catechol, and (−)-epicatichin.

[2] = test system: proteolysis in oat leaf extracts; assay: Proteolysis (amino acid release) in oat leaf extracts; details: for Mean amino acid release: with 3 mM Caffeic Acid
Description: as §1
Proteolysis was measured in oat leaf extracts or oat leaf extracts with PPO activity added (125 mU/ml). The added PPO activity was from an extract of red clover PPO1-expressing alfalfa. […] Total protein was 1.75 mg/ml. In Oat+alfalfa extracts, oat protein was present at 1.4 mg/ml and alfalfa protein was present at 0.35 mg/ml. Caffeic acid was present at 3 mM. Results in Table 6 below are for the average of two experiments using independent tissue samples.

[3] = test system: proteolytic activity in red clover leaf extracts; assay: Proteolysis (release of free amino acids, ninhydrin assay) in red clover leaf extracts; details: desalted red clover extract + 3 mM CA, 37° C.
Description: as §1, with “At the indicated times, samples were removed, trichloroacetic acid (TCA) added to 5%, and release of free amino acids (a measure of proteolytic activity) into the TCA-soluble supernatant was determined by ninhydrin assay.” left out

[4] = test system: proteolysis in control-alfalfa leaf extracts (no PPO transgene); assay: Proteolysis (amino acid release) in control-alfalfa leaf extracts
Description: as §1, §2, §3, §4, §5

[5] = test system: polyphenol oxidase (PPO), red clover PPO1 gene product; assay: PPO activity (caffeic acid oxidized per minute, TNB protocol); details: PPO1 expressed in transgenic alfalfa
Description: The o-diphenol compound is applied to forage at a rate ranging from about 5 to about 30 micromoles per gram of fresh weight forage and the oxidase is applied at a rate of about 0.1 to about 1 unit per gram of fresh weight forage. One unit is defined as one micromole of caffeic acid oxidized per minute by the following protocol.
The protocol used to determine activity is carried out at 25° C. The buffer is 20 mM TRIS-acetate pH 7.0. The caffeic acid is 100 mM in ethyl alcohol. […] The decrease in absorbance at 412 nm (TNB) from 2-5 minutes is used to determine PPO activity.
PPO activity present in reaction mixtures was varied from 0 to 500 mU/ml of extract by mixing extracts from PPO- and control-alfalfa (1 U=1 micromole caffeic acid oxidized/min; red clover and PPO-Alfalfa have 0.5-5 U activity/mg protein) to achieve a final protein concentration of 2 mg/ml. Proteolysis in the reaction mixtures following a four hour incubation at 37° C. was measured essentially as described above for reaction mixture with and without caffeic acid added to 3 mM (+CA and −CA, respectively). […]

[6] = PPO-Alfalfa, 250 mU/ml PPO activity, substrate 3 mM, 37° C.
[7] = Control-Alfalfa extract 2 mg/ml protein, substrate 3 mM, 37° C.

## O=C(O)/C=C/c1ccc(O)c(O)c1 [CA, caffeic acid]
[1]; 3 mM Caffeic Acid, PPO 16 mU/ml, protein 2 mg/ml
  Mean four hour Amino Acid Release: 0.36 ± 0.03 µmol/mg
[1]; 3 mM Caffeic Acid, PPO 32 mU/ml, protein 2 mg/ml
  Mean four hour Amino Acid Release: 0.34 ± 0.05 µmol/mg
[1]; 3 mM Caffeic Acid, PPO 62.5 mU/ml, protein 2 mg/ml
  Mean four hour Amino Acid Release: 0.21 ± 0.02 µmol/mg
[1]; 3 mM Caffeic Acid, PPO 125 mU/ml, protein 2 mg/ml
  Mean four hour Amino Acid Release: 0.15 ± 0.03 µmol/mg
[1]; 3 mM Caffeic Acid, PPO 250 mU/ml, protein 2 mg/ml
  Mean four hour Amino Acid Release: 0.12 ± 0.01 µmol/mg
[1]; 3 mM Caffeic Acid, PPO 500 mU/ml, protein 2 mg/ml
  Mean four hour Amino Acid Release: 0.06 ± 0.03 µmol/mg
[1]; >125 mU/ml PPO activity, four hour
  inhibition of proteolysis: > 80%
[1]; PPO activity 16 mU/ml, four hour
  inhibition of proteolysis: > 50%
[1]; [6]
  Mean four hour Amino Acid Release: 0.12 ± 0.03 µmol/mg
[1]; PPO-Alfalfa, caffeic acid 0.5 mM, 37° C.
  Mean four hour Amino Acid Release: 0.32 ± 0.03 µmol/mg
[1]; PPO-Alfalfa, caffeic acid 1 mM, 37° C.
  Mean four hour Amino Acid Release: 0.25 ± 0.03 µmol/mg
[1]; PPO-Alfalfa, caffeic acid 2 mM, 37° C.
  Mean four hour Amino Acid Release: 0.16 ± 0.03 µmol/mg
[1]; PPO-Alfalfa, caffeic acid 3 mM, 37° C.
  Mean four hour Amino Acid Release: 0.11 ± 0.02 µmol/mg
[1]; PPO-Alfalfa, caffeic acid 4 mM, 37° C.
  Mean four hour Amino Acid Release: 0.08 ± 0.02 µmol/mg
[1]; PPO-Alfalfa, caffeic acid 5 mM, 37° C.
  Mean four hour Amino Acid Release: 0.06 ± 0.01 µmol/mg
[1]; PPO-Alfalfa, caffeic acid 10 mM, 37° C.
  Mean four hour Amino Acid Release: 0.04 ± 0.02 µmol/mg
[1]; caffeic acid 0.5 mM, PPO-alfalfa extract, four hour
  proteolytic inhibition compared to extracts to which no caffeic acid was added: > 50%
[1]; caffeic acid 3 mM added to PPO-alfalfa extract
  reduction in proteolysis: ~80%
[1]; caffeic acid 3 mM, PPO-alfalfa extract, four hour
  proteolytic inhibition: > 80%
[2]; 3 mM caffeic acid with exogenous PPO added (125 mU/ml) to oat extract
  proteolytic inhibition: ~50%
[2]; Oat extract, time 0
  Mean amino acid release: 0.00 ± 0.00 μmol/mg protein
[2]; Oat extract, time 1
  Mean amino acid release: 0.82 ± 0.18 μmol/mg protein
[2]; Oat extract, time 2
  Mean amino acid release: 1.39 ± 0.09 μmol/mg protein
[2]; Oat extract, time 3
  Mean amino acid release: 1.73 ± 0.15 μmol/mg protein
[2]; Oat extract, time 4
  Mean amino acid release: 1.79 ± 0.07 μmol/mg protein
[2]; Oat/Control-Alf extract, time 0
  Mean amino acid release: 0.00 ± 0.00 μmol/mg protein
[2]; Oat/Control-Alf extract, time 1
  Mean amino acid release: 0.75 ± 0.17 μmol/mg protein
[2]; Oat/Control-Alf extract, time 2
  Mean amino acid release: 1.42 ± 0.06 μmol/mg protein
[2]; Oat/Control-Alf extract, time 3
  Mean amino acid release: 1.73 ± 0.05 μmol/mg protein
[2]; Oat/Control-Alf extract, time 4
  Mean amino acid release: 1.91 ± 0.05 μmol/mg protein
[2]; Oat/PPO-Alf (PPO 125 mU/ml), time 0
  Mean amino acid release: 0.00 ± 0.00 μmol/mg protein
[2]; Oat/PPO-Alf (PPO 125 mU/ml), time 1
  Mean amino acid release: 0.60 ± 0.20 μmol/mg protein
[2]; Oat/PPO-Alf (PPO 125 mU/ml), time 2
  Mean amino acid release: 0.80 ± 0.13 μmol/mg protein
[2]; Oat/PPO-Alf (PPO 125 mU/ml), time 3
  Mean amino acid release: 0.82 ± 0.11 μmol/mg protein
[2]; Oat/PPO-Alf (PPO 125 mU/ml), time 4
  Mean amino acid release: 1.02 ± 0.22 μmol/mg protein
[2]; all oat reactions containing 3 mM CA
  lower proteolysis than counterparts lacking caffeic acid: 10-30%
[3]; 0 h
  release of free amino acids: 0.00 ± 0.00
[3]; 1 h
  release of free amino acids: 0.04 ± 0.01
[3]; 2 h
  release of free amino acids: 0.06 ± 0.01
[3]; 3 h
  release of free amino acids: 0.09 ± 0.01
[3]; 4 h
  release of free amino acids: 0.11 ± 0.02
[4]; 3 mM Caffeic Acid, PPO 0 mU/ml (control-alfalfa extract), protein 2 mg/ml
  Mean four hour Amino Acid Release: 0.79 ± 0.10 µmol/mg
[4]; [7]
  Mean four hour Amino Acid Release: 0.75 ± 0.08 µmol/mg
[4]; Control-Alfalfa, caffeic acid 0.5 mM, 37° C.
  Mean four hour Amino Acid Release: 0.75 ± 0.09 µmol/mg
[4]; Control-Alfalfa, caffeic acid 1 mM, 37° C.
  Mean four hour Amino Acid Release: 0.69 ± 0.06 µmol/mg
[4]; Control-Alfalfa, caffeic acid 2 mM, 37° C.
  Mean four hour Amino Acid Release: 0.70 ± 0.07 µmol/mg
[4]; Control-Alfalfa, caffeic acid 3 mM, 37° C.
  Mean four hour Amino Acid Release: 0.66 ± 0.09 µmol/mg
[4]; Control-Alfalfa, caffeic acid 4 mM, 37° C.
  Mean four hour Amino Acid Release: 0.75 ± 0.07 µmol/mg
[4]; Control-Alfalfa, caffeic acid 5 mM, 37° C.
  Mean four hour Amino Acid Release: 0.75 ± 0.11 µmol/mg
[4]; Control-Alfalfa, caffeic acid 10 mM, 37° C.
  Mean four hour Amino Acid Release: 0.65 ± 0.06 µmol/mg
[4]; caffeic acid 3 mM added to control alfalfa extracts
  effect on proteolysis: no significant effect
[4]; in the absence of PPO activity, caffeic acid up to 10 mM
  effect on proteolysis: little effect

## O=C(/C=C/c1ccc(O)c(O)c1)O[C@@H]1C[C@](O)(C(=O)O)C[C@@H](O)[C@H]1O [CGA, chlorogenic acid]
[1]; [6]
  Mean four hour Amino Acid Release: 0.26 ± 0.06 µmol/mg
[4]; [7]
  Mean four hour Amino Acid Release: 0.80 ± 0.06 µmol/mg

## Oc1ccccc1O [Catechol, catechol]
[1]; 3 mM, PPO present (250 mU/ml), four hour
  proteolytic inhibition (in words): significant proteolytic inhibition
[1]; [6]
  Mean four hour Amino Acid Release: 0.37 ± 0.05 µmol/mg
[5]
  substrate quality for the red clover PPO1 gene product: relatively poor substrate
[4]; [7]
  Mean four hour Amino Acid Release: 0.71 ± 0.10 µmol/mg

## Oc1cc(O)c2c(c1)O[C@H](c1ccc(O)c(O)c1)[C@H](O)C2 [Epicatichin, (−)-epicatichin]
[1]; [6]
  Mean four hour Amino Acid Release: 0.25 ± 0.08 µmol/mg
[4]; [7]
  Mean four hour Amino Acid Release: 0.64 ± 0.08 µmol/mg

## O=C(O)CCc1ccc(O)c(O)c1 [HCA, hydrocaffeic acid]
[1]; [6]
  Mean four hour Amino Acid Release: 0.25 ± 0.07 µmol/mg
[4]; [7]
  Mean four hour Amino Acid Release: 0.70 ± 0.07 µmol/mg
